From US6407116B1, “Nitrogenous fused-ring compounds, process for the preparation of the same, and drugs” (Takeda Chemical Industries, Inc., priority 1997, dated 2002)
Where a name gives a salt, the structure may show the parent alone.

Legend:
[1] = system: histamine-induced dermal vascular hyperpermeability; experiment: Effect on histamine-induced dermal vascular hyperpermeability in guinea pigs; type: in vivo, guinea pig; details: Cavia porcellus; 3 mg/kg oral administration, 1 hour before intradermal histamine; male Hartley guinea pigs
Protocol: Effect on Histamine-induced Dermal Vascular Hyperpermeability in Guinea Pigs
Male Hartley guinea pigs (weighing about 500 g) were used. […] After 30 minutes, the animal was hit on its head to make it unconscious, and cut at its neck to sacrifice by exsanguination. The dorsal skin was peeled and examined for the long and short diameters (mm) of each blue spot which were then multiplied to give a product, which was averaged to give a vascular permeability index. Each substance was suspended in 5% gum arabic solution, and given orally in the volume of 0.2 ml/100 g body weight 1 hour before histamine administration. Control animals received the same volume of 5% gum arabic solution. A % inhibition of this reaction was calculated according to [Equation 1].
% Inhibition of histamine-induced dermal vascular hyperpermeability=100×(1-vascular permeability index in treatment group/vascular permeability index in control group) [Equation 1]

CCOC(=O)C(C)(C)n1c(=O)c2cc(Cl)ccc2n(CCCCN2CCC(OC(c3ccccc3)c3ccccc3)CC2)c1=O [Example 35, Ethyl 2-[6-chloro-1-[4-(4-diphenylmethoxypiperidino)butyl]-2,4-dioxo-1,2,3,4-tetrahydroquinazolin-3-yl]isobutyrate hydrochloride]
inhibition in vivo at 3 mg/kg [1]: 87%

CC(C)(C(=O)O)n1c(=O)c2cc(F)ccc2n(CCCCN2CCC(OC(c3ccccc3)c3ccccc3)CC2)c1=O [Example 124, 2-[2,4-Dioxo-1-[4-(4-diphenylmethoxypiperidino)butyl]-6-fluoro-1,2,3,4-tetrahydroquinazolin-3-yl]isobutyric acid hydrochloride]
inhibition in vivo at 3 mg/kg [1]: 90%

CCOC(=O)CCCCn1c(=O)c2ccccc2n(CCCCN2CCC(OC(c3ccccc3)c3ccccc3)CC2)c1=O [Example 94, Ethyl 2,4-dioxo-1-[4-(4-diphenylmethoxypiperidino)butyl]-1,2,3,4-tetrahydroquinazoline-3-valerate hydrochloride]
inhibition in vivo at 3 mg/kg [1]: 83%

CC(C)(C(=O)O)n1c(=O)c2ccccc2n(CCCCN2CCC(OC(c3ccccc3)c3ccccc3)CC2)c1=O [Example 120, 2-[2,4-Dioxo-1-[4-(4-diphenylmethoxypiperidino)butyl]-1,2,3,4-tetrahydroquinazolin-3-yl]isobutyric acid hydrochloride]
inhibition in vivo at 3 mg/kg [1]: 86%

O=C(O)CCCn1c(=O)c2ccccc2n(CCCCN2CCC(OC(c3ccccc3)c3ccccc3)CC2)c1=O [Example 53, 2,4-Dioxo-1-[4-(4-diphenylmethoxypiperidino)butyl]-1,2,3,4-tetrahydroquinazoline-3-butyric acid]
inhibition in vivo at 3 mg/kg [1]: 90%

O=C(O)CCn1c(=O)c2ccccc2n(CCCCN2CCC(OC(c3ccccc3)c3ccccc3)CC2)c1=O [Example 52, 2,4-Dioxo-1-[4-(4-diphenylmethoxypiperidino)butyl]-1,2,3,4-tetrahydroquinazoline-3-propionic acid]
melting point: 107 to 108 °C
inhibition in vivo at 3 mg/kg [1]: 88%

CCOC(=O)CCn1c(=O)c2ccccc2n(CCCCN2CCC(OC(c3ccccc3)c3ccccc3)CC2)c1=O [Example 17, Ethyl 2,4-dioxo-1-[4-(4-diphenylmethoxypiperidino)butyl]-1,2,3,4-tetrahydroquinazoline-3-propionate hydrochloride]
inhibition in vivo at 3 mg/kg [1]: 91%

CC(C)(C(=O)O)n1c(=O)c2cc(F)c(F)cc2n(CCCCN2CCC(OC(c3ccccc3)c3ccccc3)CC2)c1=O [Example 125, 2-[2,4-Dioxo-1-[4-(4-diphenylmethoxypiperidino)butyl]-6,7-difluoro-1,2,3,4-tetrahydroquinazolin-3-yl]isobutyric acid hydrochloride]
inhibition in vivo at 3 mg/kg [1]: 81%

Nc1ccc2c(c1)c(=O)[nH]c(=O)n2CCCCN1CCC(OC(c2ccccc2)c2ccccc2)CC1 [Example 40, 6-Amino-2,4-dioxo-1-[4-(4-diphenylmethoxypiperidino)butyl]-1,2,3,4-tetrahydroquinazoline]
melting point: 131 to 133 °C
inhibition in vivo at 3 mg/kg [1]: 90%

CCOC(=O)CCCCCn1c(=O)c2ccccc2n(CCCCN2CCC(OC(c3ccccc3)c3ccccc3)CC2)c1=O.Cl [Example 95, Ethyl 2,4-dioxo-1-[4-(4-diphenylmethoxypiperidino)butyl]-1,2,3,4-tetrahydroquinazoline-3-hexanoate hydrochloride]
melting point: 149 to 151 °C
inhibition in vivo at 3 mg/kg [1]: 85%
